Target: T1, recombinant autotaxin (Homo sapiens, UniProt Q13822)
T1 construct: made in house; host or cells: Hi5 insect cells (baculovirus)
Assay: Autotaxin test (enzyme test), Amplex Red fluorescence with LPC substrate
Type: biochemical
Details: autotaxin inhibition (enzyme test); for remaining activity at 10 µM: 10 μM compound, read-out: % Control at 10 μM
Protocol: Autotaxin Inhibition (Enzyme Test)
Autotaxin Test (Enzyme Test)
The autotaxin activity is measured indirectly using Amplex Red reagent. Amplex Red is measured here as fluorogenic indicator for the H2O2 formed. In detail, autotaxin converts the substrate lysophosphatidylcholine (LPC) into phosphocholine and lysophosphatidylic acid (LPA). After this reaction, the phosphocholine is reacted with alkaline phosphatase to give inorganic phosphate and choline. In the next step, choline is oxidised by choline oxidase to give betaine, with formation of H2O2. H2O2 reacts with Amplex Red reagent in the presence of peroxidase (horseradish peroxidase) in a 1:1 stoichiometry and forms the highly fluorescent resorufin. The fluorescence is measured in a reaction-dependent kinetic mode in order that fluorescent signals from possible other fluorescent substances which are not involved in the reaction can be corrected out.
3 μl of a standard solution or of the test substances (substances with the name A(n)) in individual concentrations dissolved in 20 mM Hepes pH 7.2 with a maximum of 11% of DMSO are pre-incubated together with 20 μl (19 ng) of highly purified recombinant autotaxin in test buffer in a black microtitre plate provided with 384 wells at 22° C. for 30 min. The reaction is then initiated by addition of 10 μl of L-α-lysophosphatidylcholine (LPC), where the final concentration of LPC is 75 μM. The mixture is incubated at 37° C. for 90 min. After the incubation, Amplex Red reagent, peroxidase (horseradish peroxidase) and choline oxidase is added, and the fluorescence is immediately measured at 612 nm with excitation of 485 nm in a “Tecan Ultra multimode” reader. The activity of autotaxin is calculated indirectly via detection of the H2O2 formed.
• Microtitre plate: PS microplate, 384 wells, small volume, black Corning, Cat#3677 • Protein: recombinant autotaxin (Baculovirale Hi5 Expression) • Substrate: L-α-lysophosphatidylcholine (chicken egg)); Avanti Polar Lipids #830071 P • Standard: C14 LPA, Avanti Polar Lipids, Cat#857120P • Detection reagent: Amplex Red reagent; Invitrogen #A12222; 5 mg dissolved in 1.923 ml of DMSO peroxidase type VI-A (horseradish) from Sigma #P6782; 5 mg dissolved in 7.45 ml of test buffer, choline oxidase; Sigma # C5896; 50 U dissolved in 2.47 ml of test buffer • Detection reagent mix: 1:50 dilution of detection reagent in test buffer • Test buffer: 10 mM Tris HCl, Merck, Cat #1.08219, pH 8, 1 mM; CaCl2×2 H2O, Merck #1.02382

Row | Compound | remaining activity at 10 µM | IC50
1 | CC(C)(C)CC(=O)N1CCN2C(=O)c3cc(-c4ccc(Cl)cc4F)ccc3N(CC(N)=O)C(=O)[C@H]2C1 [Compound A150] | 3% | 0.1 to 1 µM
2 | CC(C)(C)CC(=O)N1CCN2C(=O)c3cc(-c4ccccc4Cl)ccc3NC(=O)C2C1 (stereo not shown) [Compound A103, 7-(2-Chlorophenyl)-2-(3,3-dimethylbutyryl)-1,3,4,11a-tetrahydro-2H,10H-2,4a,10-triaza-dibenzo[a,d]cycloheptene-5,11-dione] | -10% | > 1 µM
3 | CN1CCC(N2CCC[C@H]2C(=O)N2CCN3C(=O)c4cc(-c5ccc(Cl)cc5F)ccc4NC(=O)[C@H]3C2)CC1 [Compound A118, (R)-7-(4-Chloro-2-fluorophenyl)-2-[(S)-1-(1-methylpiperidin-4-yl)pyrrolidine-2-carbonyl]-1,3,4,11a-tetrahydro-2H,10H-2,4a,10-triaza-dibenzo[a,d]cycloheptene-5,11-dione] | 8% | 0.1 to 1 µM
4 | CC(C)(C)CC(=O)N1CCN2C(=O)c3cc(-c4ccc(F)cc4)ccc3NC(=O)C2C1 (stereo not shown) [Compound A130, 2-(3,3-Dimethylbutyryl)-7-(4-fluorophenyl)-1,3,4,11a-tetrahydro-2H,10H-2,4a,10-triaza-dibenzo[a,d]cycloheptene-5,11-dione] | -1% | > 1 µM
5 | CN(C)CCN1C(=O)[C@@H]2CN(C(=O)CC(C)(C)C)CCN2C(=O)c2cc(-c3ccc(Cl)cc3F)ccc21 [Compound A163] | 10% | > 1 µM
6 | O=C1Nc2ccc(-c3ccc(Cl)cc3)cc2CN2CCN(C(=O)[C@@H]3CCCN3C3CCNCC3)CC12 (stereo partly shown) [Compound A176] | 63% | > 1 µM
7 | O=C1Nc2ccc(-c3ccc(Cl)cc3)cc2C(=O)N2CCN(C(=O)CC3CCCCC3)CC12 (stereo not shown) [Compound A24, 7-(4-Chlorophenyl)-2-(2-cyclohexylacetyl)-1,3,4,11a-tetrahydro-2H,10H-2,4a,10-triaza-dibenzo[a,d]cycloheptene-5,11-dione] | 67% | > 1 µM
8 | O=C1Nc2ccc(-c3ccccc3F)cc2C(=O)N2CCN(C(=O)c3ccc4[nH]nnc4c3)CC12 (stereo not shown) [Compound A14, 2-(1H-Benzotriazole-5-carbonyl)-7-(2-fluorophenyl)-1,3,4,11a-tetrahydro-2H,10H-2,4a,10-triaza-dibenzo[a,d]cycloheptene-5,11-dione] | 38% | > 1 µM
9 | CN1CCC(C)(C(=O)N2CCN3C(=O)c4cc(-c5ccc(Cl)cc5)ccc4NC(=O)C3C2)CC1 (stereo not shown) [Compound A107, 7-(4-Chlorophenyl)-2-(1,4-dimethylpiperidine-4-carbonyl)-1,3,4,11a-tetrahydro-2H,10H-2,4a,10-triazadibenzo[a,d]cycloheptene-5,11-dione] | 51% | > 1 µM
10 | Cn1cc(-c2ccc3c(c2)C(=O)N2CCN(C(=O)CC(C)(C)C)CC2C(=O)N3)cn1 (stereo not shown) [Compound A108, 2-(3,3-Dimethylbutyryl)-7-(1-methyl-1H-pyrazol-4-yl)-1,3,4,11a-tetrahydro-2H,10H-2,4a,10-triaza-dibenzo[a,d]cycloheptene-5,11-dione] | 90% | 
11 | CC(C)[C@H](N)C(=O)N1CCN2C(=O)c3cc(-c4ccc(Cl)cc4F)ccc3NC(=O)[C@@H]2C1 [Compound A62, (S)-2-((S)-2-Amino-3-methylbutyryl)-7-(4-chloro-2-fluorophenyl)-1,3,4,11a-tetrahydro-2H,10H-2,4a,10-triazadibenzo[a,d]cycloheptene-5,11-dione] | 27% | > 1 µM

The remaining lines, values ahead:

Row | remaining activity at 10 µM | IC50 | Compound
12 | 2% | 0.1 to 1 µM | CC(C)(C)[C@H](NC1CCNCC1)C(=O)N1CCN2C(=O)c3cc(-c4ccc(Cl)cc4F)ccc3NC(=O)[C@H]2C1 [Compound 48, (R)-7-(4-Chloro-2-fluorophenyl)-2-[(S)-3,3-dimethyl-2-(piperidin-4-ylamino)butyryl]-1,3,4,11a-tetrahydro-2H,10H-2,4a,10-triazadibenzo[a,d]cycloheptene-5,11-dione]
13 | 22% | > 1 µM | CC(O)(C(=O)N1CCN2C(=O)c3cc(-c4ccc(Cl)cc4)ccc3NC(=O)C2C1)c1ccccc1 (stereo not shown) [Compound A39, 7-(4-Chlorophenyl)-2-(2-hydroxy-2-phenylpropionyl)-1,3,4,11a-tetrahydro-2H,10H-2,4a,10-triazadibenzo[a.d]cycloheptene-5,11-dione]
14 | 11% | > 1 µM | CC(C)(C)CC(=O)N1CCN2C(=O)c3cc(-c4ccc(Cl)cc4F)ccc3NC(=O)[C@H]2C1 [Compound A100, (R)-7-(4-Chloro-2-fluorophenyl)-2-(3,3-dimethyl-butyryl)-1,3,4,11a-tetrahydro-2H,10H-2,4a,10-triazadibenzo[a,d]cycloheptene-5,11-dione]
15 | 85% |  | O=C1Nc2ccc(-c3ccccc3)cc2C(=O)N2CCN(C(=O)C3CCCC3)C[C@@H]12 [Compound B6]
16 | 41% | > 1 µM | O=C1Nc2ccc(-c3ccccc3F)cc2C(=O)N2CCN(C(=O)C3CCCCC3)C[C@H]12 [Compound B19]
17 | 56% |  | O=C1Nc2ccc(-c3ccccc3)cc2C(=O)N2CCN(C(=O)[C@@H]3CSCN3)C[C@H]12 [Compound B18]
18 | 61% | > 1 µM | O=C1Nc2ccc(-c3ccc(Cl)cc3)cc2C(=O)N2CCN(C(=O)C(O)c3cccc(C(F)(F)F)c3)CC12 (stereo not shown) [Compound A45, 7-(4-Chlorophenyl)-2-[2-hydroxy-2-(3-trifluoro-methylphenyl)acetyl]-1,3,4,11a-tetrahydro-2H,10H-2,4a,10-triazadibenzo[a,d]cycloheptene-5,11-dione]
19 |  | > 1 µM | CC(C)(C)CC(=O)N1CCN2C(=O)c3cc(-c4ccccc4F)ccc3NC(=O)[C@H]2C1 [Compound A7, (R)-2-(3,3-Dimethylbutyryl)-7-(2-fluorophenyl)-1,3,4,11a-tetrahydro-2H,10H-2,4a,10-triaza-dibenzo[a,d]cycloheptene-5,11-dione]
20 | 52% | > 1 µM | CC(C)(C)COC(=O)N1CCN2C(=O)c3cc(-c4ccc(Cl)cc4)ccc3NC(=O)C2C1 (stereo not shown) [Compound A168]
21 | -27% | > 1 µM | CC(C)(C(=O)N1CCN2C(=O)c3cc(-c4ccc(Cl)cc4F)ccc3NC(=O)C2C1)c1ccccc1 (stereo not shown) [Compound A58, 7-(4-Chloro-2-fluorophenyl)-2-(2-methyl-2-phenyl-propionyl)-1,3,4,11a-tetrahydro-2H,10H-2,4a,10-triazadibenzo[a,d]cycloheptene-5,11-dione]
22 | 48% | > 1 µM | Cc1cccc(C(O)C(=O)N2CCN3C(=O)c4cc(-c5ccc(Cl)cc5)ccc4NC(=O)C3C2)c1 (stereo not shown) [Compound A44, 7-(4-Chlorophenyl)-2-(2-hydroxy-2-m-tolylacetyl)-1,3,4,11a-tetrahydro-2H,10H-2,4a,10-triaza-dibenzo[a,d]cycloheptene-5,11-dione]
23 | 47% |  | O=C1Nc2ccc(-c3ccccc3F)cc2C(=O)N2CCN(C(=O)[C@@H](O)c3ccccc3)C[C@H]12 [Compound B3]
24 | 58% |  | O=C1Nc2ccc(-c3ccc(Cl)cc3F)cc2C(=O)N2CCN(C(=O)[C@H]3NCC[C@@H]3O)CC12 (stereo partly drawn) [Compound A69, 7-(4-Chloro-2-fluorophenyl)-2-((2S,3S)-3-hydroxy-pyrrolidine-2-carbonyl)-1,3,4,11a-tetrahydro-2H,10H-2,4a,10-triazadibenzo[a,d]cycloheptene-5,11-dione]
25 | 78% |  | Cc1ccc(-c2ccc3c(c2)C(=O)N2CCN(C(=O)CC(C)(C)C)CC2C(=O)N3)c(C)c1 (stereo not shown) [Compound A86, 2-(3,3-Dimethylbutyryl)-7-(2,4-dimethylphenyl)-1,3,4,11a-tetrahydro-2H,10H-2,4a,10-triaza-dibenzo[a,d]cycloheptene-5,11-dione]
26 |  | 0.1 to 1 µM | CC(C)(C)[C@H](O)C(=O)N1CCN2C(=O)c3cc(-c4ccc(Cl)cc4)ccc3NC(=O)[C@H]2C1 [Compound A56, (R)-7-(4-Chlorophenyl)-2-((S)-2-hydroxy-3,3-di-methyl-1-oxobutyl)-1,3,4,11a-tetrahydro-2H,10H-2,4a,10-triazadibenzo[a,d]cycloheptene-5,11-dione]
27 | 73% | > 1 µM | CC(C)(C)CC(=O)N1CCN2Cc3cc(-c4ccccc4F)ccc3NC(=O)C2C1 (stereo not shown) [Compound 26, 2-(3,3-dimethylbutyryl)-7-(2-fluorophenyl)-1,3,4,5,10,11a-hexahydro-2H-2,4-a,10-triazadibenzo[a,d]cyclohepten-11-one]
